# Results from publication PMC6057649, “Development of NanoLuc-PEST expressing Leishmania mexicana as a new drug discovery tool for axenic- and intramacrophage-based assays” (PLoS Neglected Tropical Diseases, 2018).
# Where two headings read alike, the source gives them in different places.
# System: NanoLuc-PEST expressing L. mexicana axenic amastigotes
# Assay: microbe, parasite or virus in culture
# Format: cell-based
# Settings: for Relative Bioluminescence (%) / viability at 2 µM / viability at 10 µM: 72 hours, relative to DMSO only control, n = 4; for viability at 2 µM / viability at 10 µM: read-out: Relative Bioluminescence (%); for EC50: hit compounds from the axenic amastigote screen, S3 Table, read-out: EC50, Axenic Amastigotes
# [1] = Leishmania mexicana, 2 µM compound
# [2] = Leishmania mexicana, 10 µM compound
Structure (SMILES),Relative Bioluminescence (%) (2 µM compound),Relative Bioluminescence (%) (10 µM compound),further results
C[C@H](c1ccc2c(c1)CCCC2)N(C)c1ncc2c(N)nc(N)nc2n1 [MMV690103],59.86%,0.48%,
FC(F)(F)c1cccc(-c2nc3c(NCc4ccncc4)nccc3[nH]2)c1 [MMV032967],79.58%,75.35%,
COc1ccc(Cl)cc1NC(=O)CN(C)C(=O)c1cnn(-c2ccccc2)n1 [MMV020710],102.08%,128.98%,
Nc1ccc2ncnc(Nc3ccc(OCc4cccc(F)c4)c(Cl)c3)c2c1 [MMV688273],63.86%,0.09%,
COCC(C)NC(=O)CSc1ncnc2sc(-c3ccccc3)cc12 (stereo not shown) [MMV676536],84.93%,103.25%,
Cn1ccnc1CNCCS(=O)(=O)c1cccc(Nc2ccc(-c3cccc(F)c3)cn2)c1 [MMV688466],108.11%,117.26%,
c1csc(-c2cnc3sc(NCC4CCOCC4)nn23)c1 [MMV010764],69.50%,31.69%,
NC(N)=Nc1ccc(-c2ccc(-c3ccc(N=C(N)N)cc3Cl)o2)c(Cl)c1 [MMV688179],105.96%,54.50%,
Cc1cccc(-c2nc(Nc3ccncn3)c3sccc3n2)n1 [MMV688122],61.39%,16.72%,
N#CCN(CCCCN1CCN(c2ccc(F)cc2)CC1)C(=O)OCc1ccccc1 [MMV675997],116.18%,97.48%,
CCc1nc2ccc(C(=O)NCc3ccc4c(c3)OCO4)cn2c1N(C)Cc1cccs1 [MMV407539],104.77%,70.84%,
c1cc(C2=NCCN2)cc(-c2cc(-c3ccc(C4=NCCN4)cc3)no2)c1 [MMV688361],96.04%,78.94%,
Nc1nc(N)c2c3c(sc2n1)CN(Cc1ccccc1)CC3 [MMV688345],105.25%,69.94%,
O=C(NCCc1ccccc1)c1cc(-c2cccnc2)cnc1NCC1CC1 [MMV026490],92.31%,60.31%,
Cc1cc(NCCc2ccccc2)nc(NC(=N)Nc2ccc(Cl)cc2)n1 [MMV021660],89.16%,56.67%,
CC1(C)Cc2c(c(N3CCOCC3)nc3snc(Br)c23)CO1 [MMV687794],97.30%,72.05%,
Cc1nc(-c2ccccn2)nc(N2CCC(Cc3ccccc3)C2)c1Cl (stereo not shown) [MMV659004],73.83%,-1.44%,
CCOc1ccc(-c2nc(CNCCc3ccc(F)cc3)cs2)cc1 [MMV688938],63.80%,76.80%,
Nc1ncnc2c1c(Cc1cccc3ccccc13)nn2CC1CCNCC1 [MMV676182],78.18%,53.64%,
CC(C)(C)OC(=O)N1CCN(c2nccc(-c3ccc(-c4ccc(Cl)cc4)s3)n2)CC1 [MMV688416],76.11%,66.54%,

Structure (SMILES),Relative Bioluminescence (%) (2 µM compound),Relative Bioluminescence (%) (10 µM compound),further results
"CO[C@H]1/C=C/O[C@@]2(C)Oc3c(C)c(O)c4c(O)c(c(/C=N/N5CCN(C)CC5)c(O)c4c3C2=O)NC(=O)/C(C)=C\C=C\[C@H](C)[C@H](O)[C@@H](C)[C@@H](O)[C@@H](C)[C@H](OC(C)=O)[C@@H]1C [MMV688775, Rifampicin, reference compound]",,,viability at 2 µM [1]: 47.6%; viability at 10 µM [2]: 2.74%
COc1ccc(-c2nnc3ccc(-c4cccc(C(C)C)c4)cn23)cc1OC [MMV688313],55.91%,18.47%,
CS(=O)(=O)Cc1nc2ccccc2oc1=O [MMV553002],72.57%,58.91%,
CC1(C)OB(O)c2ccc(C3=NOC(c4cc(Cl)c(F)c(Cl)c4)(C(F)(F)F)C3)cc21 (stereo not shown) [MMV687775],54.77%,7.40%,
CCOC(=O)NC(=O)c1ccsc1NC(=O)c1nc2ccccc2s1 [MMV090930],11.16%,-0.77%,
CN1CCN(S(=O)(=O)c2ccc(-c3ccc4c(Nc5ccc6n[nH]nc6c5)ccnc4c3)cc2)CC1 [MMV687246],103.95%,82.04%,
O=C(Nc1cccc(-c2ccc(NCCCN3CCCC3)nc2)c1)c1ccccc1 [MMV023953],85.42%,83.96%,
CC(C)(C)n1nc(Cc2cccc3ccccc23)c2c(N)ncnc21 [MMV676599],80.19%,31.83%,
CCN(CC)CCCN1CCN(C(=O)c2cccc(-c3noc(C(F)(F)F)n3)c2)CC1 [MMV022236],74.51%,94.61%,
"O=C(Cn1ccnc1[N+](=O)[O-])NCc1ccccc1 [MMV688773, Benznidazole, reference compound]",,,viability at 2 µM [1]: 110%; viability at 10 µM [2]: 132%
Cc1cc(NC(=O)c2ccc(S(=O)(=O)N(Cc3ccccc3)C(C)C)cc2)no1 [MMV007133],102.77%,71.20%,
COc1cccc(-n2nnnc2S(=O)(=O)Cc2ccccc2)c1 [MMV676388],0.56%,0.16%,EC50: 730 nM
Cc1cccc(C(=O)Nc2ccnc(N(C)C3CCN(CC(C)C)CC3)c2)c1 [MMV024829],74.80%,69.82%,
Cc1cc(OCC(=O)NCc2ccccc2)c2cc(Br)ccc2n1 [MMV687747],76.47%,30.38%,
CCc1cc(=O)n(C)c(SC(C)C(=O)Nc2ccc(F)cc2)n1 (stereo not shown) [MMV688980],76.34%,48.08%,
CCCn1c(CNc2ccccc2O)nc2ccccc21 [MMV676445],79.21%,77.96%,
CN(C)c1cc(NC(=O)Nc2ccccc2)c2ccccc2n1 [MMV006901],96.82%,107.15%,
CC(C)(C)c1ccc(N[C@@H]2CCCC[C@H]2NC(=O)c2ccco2)cc1 [MMV675969],104.76%,77.56%,
CN(C(=O)c1cc2c(-c3cncnc3)cccc2[nH]1)c1ccccc1 [MMV024443],64.75%,32.60%,
Nc1ccc(C(=O)Nc2ccc(-c3nc4ccccc4o3)cc2)cc1 [MMV007920],112.76%,88.96%,

Structure (SMILES),Relative Bioluminescence (%) (2 µM compound),Relative Bioluminescence (%) (10 µM compound),further results
"Oc1c(I)cc(I)c2cccnc12 [MMV002817, Iodoquinol, reference compound]",,,viability at 2 µM [1]: -1.49%; viability at 10 µM [2]: -1.46%; EC50 (Leishmania mexicana): 220 nM
CCCCS(=O)(=O)Nc1ccc2cnn(C)c2c1 [MMV687145],132.61%,130.77%,
O=C(C1CCN(c2nnc(-n3cccc3)s2)CC1)N1CCC(Cc2ccccc2)CC1 [MMV676478],93.56%,56.18%,
O=C(NCc1nnc2n1CCCCC2)c1ccc(-c2ccc(F)cc2)o1 [MMV688796],88.65%,91.91%,
O=C(Nc1ccc(N2CCNCC2)nc1)c1oc(-c2ccccc2)nc1C(F)(F)F [MMV024937],68.74%,69.28%,
NCCN(C(=O)c1ccc(Cl)cc1Cl)c1ccc(OCc2ccc(Cl)cc2)cc1 [MMV688371],95.57%,61.94%,
CC(C)(C)c1cc(C(=O)Nc2cccnc2)cc(C(=O)Nc2cccnc2)c1 [MMV020982],109.38%,93.07%,
c1ccc(Oc2ccc(-c3cc(N4CCNCC4)[nH]n3)cc2)cc1 [MMV687706],85.99%,75.35%,
CN1CCN(c2cc(-c3ccc(F)cc3)nc(-c3ccncc3)n2)CC1 [MMV688888],78.28%,89.99%,
"CC(C)/N=c1\cc2n(-c3ccc(Cl)cc3)c3ccccc3nc-2cc1Nc1ccc(Cl)cc1 [MMV687800, Clofazimine, reference compound]",,,viability at 2 µM [1]: 41.1%; viability at 10 µM [2]: 37.9%
CCCn1c(NC(=O)c2ccc3ccccc3n2)nc2ccccc21 [MMV1030799],37.62%,-5.56%,
CC(C(=O)Nc1ccc2oc(-c3ccncc3)nc2c1)c1ccccc1 (stereo not shown) [MMV688471],59.14%,49.33%,
O=C(CCC1CCCCC1)Nc1cccc(-c2nnc(-c3ccco3)o2)c1 [MMV676589],54.08%,15.64%,
"CCc1nn(C)c(C(=O)NCc2ccc(Oc3ccc(C)cc3)cc2)c1Cl [MMV688934, Tolfenpyrad]",,,viability at 2 µM [1]: 68.5%; viability at 10 µM [2]: 68.1%
CCC(Sc1nc2ccccc2o1)C(=O)Nc1nnc(C)s1 (stereo not shown) [MMV611037],55.30%,44.60%,
"N=C(N)c1ccc(OCCCCCOc2ccc(C(=N)N)cc2)cc1 [MMV000062, Pentamidine, reference compound]",,,viability at 2 µM [1]: 72.2%; viability at 10 µM [2]: 96.8%
Cc1ccc2[nH]c3c(NCCN(C)C)ncnc3c2c1 [MMV006372],63.77%,81.31%,
O=C(c1ccc(NCCO)cc1)C1C[C@H]1c1ccc(Cl)cc1 (stereo partly shown) [MMV676877],100.77%,116.30%,
